From PMC7356696, “Synthesis, Antimicrobial Activity and Molecular Docking of Novel Thiourea Derivatives Tagged with Thiadiazole, Imidazole and Triazine Moieties as Potential DNA Gyrase and Topoisomerase IV Inhibitors” (Molecules, 2020)
Values after ≈ are worked out from the molar mass of the structure shown.

Tests used:
[1] = tested on: Pseudomonas aeruginosa ATCC 27853; assay: Agar well diffusion, inhibition zone; type: cell-based; design: dose or concentration left out as unconfirmed; settings: ATCC27853, P. aeruginosa ATCC 27853, NA = No Activity, read-out: Mean Diameter of Inhibition Zone (Mean ± SEM)
Text: (§1) The antimicrobial activity of all synthesized compounds 2–13 was screened against a panel of two Gram-positive bacteria (Staphylococcus aureus ATCC 29213 and Bacillus subtilis ATCC 6633), two Gram-negative bacteria (Escherichia coli ATCC 25922, Pseudomonas aeruginosa ATCC 27853) and two fungi (Candida albicans ATCC 10231 and Aspergillus flavus ATCC 46283) using the agar well diffusion method. Ciprofloxacin and clotrimazole were used as antibacterial and antifungal standards, respectively. The results of this study were recorded as the average diameter of the inhibition zones (IZ) in Table 1. […] Additionally, the promising activity against S. aureus was observed from compounds 9, 12 and 13, however against B. subtilis from compounds 12 and 13.
(§2) The antimicrobial assay was performed in vitro for the target compounds 2–13 against Staphylococcus aureus ATCC 29213, Bacillus subtilis ATCC 6633 as Gram-positive bacteria, Escherichia coli ATCC 25922, Pseudomonas aeruginosa ATCC 27853 as Gram-negative bacteria and Candida albicans ATCC 10231, Aspergillus flavus ATCC 46283 as fungi. At the first, 100 μL of the test bacteria/fungi were grown in 10 mL of fresh media until they reached a count of approximately 10^8 cells/ml for bacteria or 10^5 cells/mL for fungi. One milliliter of each sample (at 0.5 mg/mL) was added to each well (10 mm diameter holes cut in the agar gel). The plates were incubated for 24 h at 37 °C (for bacteria and yeast) and for 72 h at 27 °C (for filamentous fungi), each test was repeated three times. After incubation, the microorganism’s growth was observed. Ciprofloxacin and clotrimazole were used as standard antibacterial and antifungal drugs, respectively. The resulting inhibition zone diameters were measured in millimeters using the diffusion technique. […] The different concentrations (triplicate) of each compound were tested and compared with standard drugs.

[2] = tested on: Escherichia coli ATCC 25922; assay: Agar well diffusion, inhibition zone; type: cell-based; design: dose or concentration left out as unconfirmed; settings: ATCC25922, E. coli ATCC 25922, NA = No Activity, read-out: Mean Diameter of Inhibition Zone (Mean ± SEM)
Text: as §1, §2

[3] = tested on: Candida albicans ATCC 10231; assay: Agar well diffusion, inhibition zone; type: cell-based; design: dose or concentration left out as unconfirmed; settings: ATCC10231, C. albicans ATCC 10231, NA = No Activity, read-out: Mean Diameter of Inhibition Zone (Mean ± SEM)
Text: as §1, §2

[4] = tested on: Aspergillus flavus ATCC 46283; assay: Agar well diffusion, inhibition zone; type: cell-based; design: dose or concentration left out as unconfirmed; settings: ATCC46283, A. flavus ATCC 46283, NA = No Activity, read-out: Mean Diameter of Inhibition Zone (Mean ± SEM)
Text: as §1, §2

[5] = molecular target: T1, E. coli Topoisomerase IV (Escherichia coli, UniProt P20083); assay: In vitro enzyme inhibition, topoisomerase IV decatenation kit (Inspiralis); type: biochemical
T1 construct: purchased Inspiralis
T1 sequence (P0AFI2 whole entry): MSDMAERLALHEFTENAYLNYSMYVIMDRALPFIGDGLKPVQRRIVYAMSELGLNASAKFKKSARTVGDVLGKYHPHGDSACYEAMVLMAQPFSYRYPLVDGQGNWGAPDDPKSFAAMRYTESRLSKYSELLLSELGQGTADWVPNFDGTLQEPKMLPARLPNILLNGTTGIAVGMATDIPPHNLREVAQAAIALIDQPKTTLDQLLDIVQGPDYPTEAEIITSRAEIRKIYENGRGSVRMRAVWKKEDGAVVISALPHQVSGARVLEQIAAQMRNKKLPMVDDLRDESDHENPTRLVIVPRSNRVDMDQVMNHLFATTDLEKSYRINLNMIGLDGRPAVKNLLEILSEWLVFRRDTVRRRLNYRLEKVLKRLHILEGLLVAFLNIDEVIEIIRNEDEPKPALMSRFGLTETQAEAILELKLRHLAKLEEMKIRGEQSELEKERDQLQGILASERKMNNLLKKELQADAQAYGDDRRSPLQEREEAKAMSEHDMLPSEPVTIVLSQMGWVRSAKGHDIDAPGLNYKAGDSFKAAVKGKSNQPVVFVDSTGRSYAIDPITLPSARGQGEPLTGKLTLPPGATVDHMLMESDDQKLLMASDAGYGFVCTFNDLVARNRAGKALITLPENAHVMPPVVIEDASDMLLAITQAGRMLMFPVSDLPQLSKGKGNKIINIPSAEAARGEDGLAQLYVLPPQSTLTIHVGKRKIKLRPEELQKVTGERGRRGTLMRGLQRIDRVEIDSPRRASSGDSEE
T1 sequence (P20083 whole entry): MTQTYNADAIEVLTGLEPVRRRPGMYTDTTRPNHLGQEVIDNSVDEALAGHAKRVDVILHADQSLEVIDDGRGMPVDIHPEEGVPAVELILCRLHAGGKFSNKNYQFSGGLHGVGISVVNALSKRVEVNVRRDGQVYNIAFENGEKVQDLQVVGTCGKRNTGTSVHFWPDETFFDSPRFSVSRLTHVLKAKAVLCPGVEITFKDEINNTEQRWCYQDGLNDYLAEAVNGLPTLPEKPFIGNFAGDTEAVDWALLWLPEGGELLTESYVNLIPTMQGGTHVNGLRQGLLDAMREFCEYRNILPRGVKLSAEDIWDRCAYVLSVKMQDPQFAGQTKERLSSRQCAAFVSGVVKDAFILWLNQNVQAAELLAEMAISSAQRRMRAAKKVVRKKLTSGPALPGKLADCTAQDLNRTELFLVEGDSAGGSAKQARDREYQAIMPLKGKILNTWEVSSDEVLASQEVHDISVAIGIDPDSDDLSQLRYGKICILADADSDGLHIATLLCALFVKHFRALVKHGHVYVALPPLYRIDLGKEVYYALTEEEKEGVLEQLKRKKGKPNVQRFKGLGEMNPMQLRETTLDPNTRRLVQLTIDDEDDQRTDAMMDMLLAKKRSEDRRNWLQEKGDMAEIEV
Experimental: (§3) This test was performed at the Confirmatory Diagnostic Unit, VACSERA, Egypt.
(§4) The screening performed against E. coli DNA gyrase B, E. coli Topoisomerase IV and dihydrofolate reductase enzymes.

[6] = tested on: Bacillus subtilis ATCC 6633; assay: Agar well diffusion, inhibition zone; type: cell-based; design: dose or concentration left out as unconfirmed; settings: ATCC6633, B. subtilis ATCC 6633, NA = No Activity, read-out: Mean Diameter of Inhibition Zone (Mean ± SEM)
Text: as §1
as §2, with “One milliliter of each sample (at 0.5 mg/mL) was added to each well (10 mm diameter holes cut in the agar gel).” left out

[7] = tested on: Staphylococcus aureus ATCC 29213; assay: Agar well diffusion, inhibition zone; type: cell-based; design: dose or concentration left out as unconfirmed; settings: ATCC29213, S. aureus ATCC 29213, NA = No Activity, read-out: Mean Diameter of Inhibition Zone (Mean ± SEM)
Text: as §1
as §2, with “One milliliter of each sample (at 0.5 mg/mL) was added to each well (10 mm diameter holes cut in the agar gel).” left out

[8] = molecular target: T2, dihydrofolate reductase (DHFR) (Homo sapiens, UniProt P00374); assay: Dihydrofolate reductase inhibitor screening kit (colorimetric, BioVision); type: biochemical; settings: read-out: IC50 (mean ± SEM)
T2 construct: purchased Bio Vision
T2 sequence (P00374 1-187): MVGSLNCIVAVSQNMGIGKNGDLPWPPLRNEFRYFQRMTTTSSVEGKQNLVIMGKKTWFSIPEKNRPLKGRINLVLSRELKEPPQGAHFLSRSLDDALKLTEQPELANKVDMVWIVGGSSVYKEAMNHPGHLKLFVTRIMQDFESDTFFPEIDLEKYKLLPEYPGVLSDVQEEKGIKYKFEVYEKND
Experimental: as §3, §4

[9] = molecular target: T3, E. coli DNA gyrase B (Escherichia coli, UniProt P0AES6); assay: In vitro enzyme inhibition, DNA gyrase microplate assay kit (Inspiralis); type: biochemical
T3 construct: purchased Inspiralis
Experimental: as §3, §4

[10] = MTT assay for cytotoxic activity; type: cell-based; settings: African green monkey, Vero cells (normal kidney epithelial cell line), read-out: IC50 (Mean ± SEM), cytotoxic activity
Text: (§5) The results are expressed as IC50 values (µM) and are depicted in Table 3.

[11] = tested on: human breast cancer (MCF-7) cells; assay: MTT assay for cytotoxic activity; type: cell-based; settings: Homo sapiens, MCF7, MCF-7 cells, read-out: IC50 (Mean ± SEM), cytotoxic activity
Text: as §5

[12] = tested on: Pseudomonas aeruginosa ATCC 27853; assay: MIC, modified agar well diffusion method; type: cell-based; settings: ATCC27853, P. aeruginosa ATCC 27853, read-out: MIC (Mean ± SEM)
Text: as §1, §2

[13] = tested on: Bacillus subtilis ATCC 6633; assay: MIC, modified agar well diffusion method; type: cell-based; settings: ATCC6633, B. subtilis ATCC 6633, read-out: MIC (Mean ± SEM)
Text: as §1, §2

[14] = tested on: Escherichia coli ATCC 25922; assay: MIC, modified agar well diffusion method; type: cell-based; settings: ATCC25922, E. coli ATCC 25922, read-out: MIC (Mean ± SEM)
Text: as §1, §2

[15] = tested on: Staphylococcus aureus ATCC 29213; assay: MIC, modified agar well diffusion method; type: cell-based; settings: ATCC29213, S. aureus ATCC 29213, read-out: MIC (Mean ± SEM)
Text: as §1, §2

[16] = tested on: Candida albicans ATCC 10231; assay: MIC, modified agar well diffusion method; type: cell-based; settings: ATCC10231, C. albicans ATCC 10231, read-out: MIC (Mean ± SEM)
Text: as §1, §2

[17] = tested on: Aspergillus flavus ATCC 46283; assay: MIC, modified agar well diffusion method; type: cell-based; settings: ATCC46283, A. flavus ATCC 46283, read-out: MIC (Mean ± SEM)
Text: as §1, §2

## N#CCC(=O)NNC(=S)NC(=O)Cc1ccccc1 [Compound 8, 1-(2-Cyanoacetyl)-4-phenylacetylthiosemicarbazide]
[1]
  zone of inhibition: 36 ± 0.12 mm
[2]
  zone of inhibition: 27 ± 0.62 mm
[3]
  zone of inhibition: 18 ± 0.05 mm
[4]
  zone of inhibition: 27 ± 0.21 mm
[5]
  IC50: 19.7 ± 1 µM
[6]
  zone of inhibition: 42 ± 0.3 mm
[7]
  zone of inhibition: 39 ± 1.21 mm
[8]
  IC50: 189.5 ± 1.06 µM
[9]
  IC50: 0.33 µM
[10]
  IC50: 144.7 ± 0.36 µM
[11]
  IC50: 22.4 ± 0.36 µM
[12]
  MIC: 1.25 ± 0.5 µg/mL (≈ 4.52 µM)
[13]
  MIC: 1.38 ± 0.25 µg/mL (≈ 4.99 µM)
[14]
  MIC: 0.95 ± 0.22 µg/mL (≈ 3.44 µM)
[15]
  MIC: 3.25 ± 1 µg/mL (≈ 11.8 µM)
[16]
  MIC: 39.8 ± 0.2 µg/mL (≈ 144 µM)
[17]
  MIC: 2.11 ± 0.51 µg/mL (≈ 7.64 µM)
